pEC50, pIC50: −log10 of the molar value.
Key:
Plasmodium yoelii = experiment: Antimalarial activity against Plasmodium yoelii infected in mouse; assay type: functional
Plasmodium falciparum [1] = experiment: Antimalarial activity against Plasmodium falciparum K1; assay type: functional, organism-based
Plasmodium berghei [2] = experiment: Antimalarial activity against Plasmodium berghei infected in sc dosed mouse; assay type: functional; settings: for ED50: Plasmodium berghei
Plasmodium berghei [3] = experiment: Antimalarial activity against Plasmodium berghei infected in po dosed mouse; assay type: functional
Plasmodium falciparum [4] = experiment: Antimalarial activity against chloroquine-sensitive Plasmodium falciparum NF54; assay type: functional, organism-based
Plasmodium falciparum [5] = experiment: Antimalarial activity against chloroquine-resistant Plasmodium falciparum K1; assay type: functional, organism-based
Plasmodium falciparum [6] = experiment: Antimalarial activity against Plasmodium falciparum Dd2; assay type: functional, organism-based
Plasmodium falciparum [7] = experiment: Antimalarial activity against Plasmodium falciparum NF54; assay type: functional, organism-based
Plasmodium falciparum [8] = experiment: Antimalarial activity against chloroquine-sensitive Plasmodium falciparum HB3; assay type: functional, organism-based
Plasmodium falciparum [9] = experiment: Antimalarial activity against ART-resistant Plasmodium falciparum harboring R539T mutant assessed as increase in survival at 700 nM; assay type: functional
Plasmodium falciparum [10] = experiment: Antimalarial activity against chloroquine sensitive Plasmodium falciparum FCR-3; assay type: functional, organism-based
Plasmodium falciparum [11] = experiment: Antimalarial activity against late blood stage Plasmodium falciparum NF54 gametocytes; assay type: functional, organism-based
Plasmodium falciparum [12] = experiment: Potency index, ratio of artemisinin IC50 to test compound IC50 for Plasmodium falciparum W2; assay type: functional
Plasmodium falciparum [13] = experiment: Potency index, ratio of artemisinin IC50 to test compound IC50 for Plasmodium falciparum D6; assay type: functional
Plasmodium falciparum [14] = experiment: Antimalarial activity against Plasmodium falciparum D10; assay type: functional, organism-based
Plasmodium berghei [15] = experiment: Antimalarial activity against Plasmodium berghei K173 infected in mouse; assay type: functional
Plasmodium falciparum [16] = experiment: Antimalarial activity against chloroquine-sensitive Plasmodium falciparum NF54 infected in iv dosed mouse; assay type: functional
Plasmodium falciparum [17] = experiment: Antimalarial activity against chloroquine-sensitive Plasmodium falciparum NF54 infected in po dosed mouse; assay type: functional
Plasmodium berghei [18] = experiment: Antimalarial activity against Plasmodium berghei infected in mouse; assay type: functional; settings: Plasmodium berghei

SMILES: CC1CC2CCC(C1)[C@@](C)(/C=C/[C@@H](O)C(C)(C)O)OO2 (some centres not stated)
- ED50 (Plasmodium yoelii): 95 mg/kg
- pIC50 (Plasmodium falciparum [1]): 7.25

SMILES: C[C@H]1[C@H](c2cccn2C)O[C@@H]2O[C@]3(C)CC[C@H]4[C@H](C)CC[C@@H]1[C@@]24OO3
- ED50 (Plasmodium berghei [2]): 0.7 mg/kg
- ED90 (Plasmodium berghei [3]): 8.5 mg/kg

SMILES: C[C@H]1[C@H](OC(=O)c2cccc([N+](=O)[O-])c2)O[C@@H]2O[C@]3(C)CC[C@H]4[C@H](C)CC[C@@H]1[C@@]24OO3
- pIC50 (Plasmodium falciparum [4]): 7.98

SMILES: CC1(OCc2ccccc2)CCC2CC1OO[C@]2(/C=C\c1ccc(F)cc1)c1ccccc1 (some centres not stated)
- pIC50 (Plasmodium falciparum [5]): 7.54

SMILES: C[C@H]1[C@H](N2CCN(C(=O)Nc3ccccc3)CC2)O[C@@H]2O[C@]3(C)CC[C@H]4[C@H](C)CC[C@@H]1[C@@]24OO3
- pIC50 (Plasmodium falciparum [6]): 8.12
- pIC50 (Plasmodium falciparum [7]): 8.89

SMILES: Cc1ccc([C@@H]2O[C@@H]3O[C@]4(C)CC[C@H]5[C@H](C)CC[C@@H]([C@H]2C)[C@@]35OO4)o1
- ED50 (Plasmodium berghei [2]): 0.9 mg/kg

SMILES: C[C@H]1[C@@H](OCc2ccc(CN3CCCC3)cc2)O[C@@H]2O[C@]3(C)CC[C@H]4[C@H](C)CC[C@@H]1[C@@]24OO3
- pIC50 (Plasmodium falciparum [5]): 8.64
- pIC50 (Plasmodium falciparum [8]): 8.64

SMILES: CC1CC2CCC(C1)[C@@](C)(/C=C/[C@H](O)C(C)(C)O)OO2 (some centres not stated)
- ED50 (Plasmodium yoelii): 50 mg/kg
- pIC50 (Plasmodium falciparum [1]): 6.94

SMILES: N[C@H]1CC[C@@H](Oc2ccc([C@H]3CC[C@]4(CC3)OOC3(O4)C4CC5CC(C4)CC3C5)cc2)CC1 (some centres not stated)
- Activity (Plasmodium falciparum [9]): <0.01%

SMILES: CC1(OCc2ccccc2)CCC2CC1OO[C@]2(/C=C\c1ccc(Cl)cc1)c1ccccc1 (some centres not stated)
- pIC50 (Plasmodium falciparum [5]): 7.64

SMILES: C[C@H]1[C@H](n2cc(-c3ccc(F)cc3)nn2)O[C@@H]2O[C@]3(C)CC[C@H]4[C@H](C)CC[C@@H]1[C@@]24OO3
- pIC50 (Plasmodium falciparum [10]): 8.85

SMILES: C[C@H]1[C@H](N2CCN(C(=O)c3ccc(C(F)(F)F)cc3)CC2)O[C@@H]2O[C@]3(C)CC[C@H]4[C@H](C)CC[C@@H]1[C@@]24OO3
- pIC50 (Plasmodium falciparum [6]): 7.88
- pIC50 (Plasmodium falciparum [7]): 9.31
- pIC50 (Plasmodium falciparum [1]): 8.46

SMILES: C[C@H]1[C@H](N2CCN(C(=O)Nc3ccc(C(F)(F)F)cc3)CC2)O[C@@H]2O[C@]3(C)CC[C@H]4[C@H](C)CC[C@@H]1[C@@]24OO3
- pIC50 (Plasmodium falciparum [6]): 7.91
- pIC50 (Plasmodium falciparum [7]): 8.74
- pIC50 (Plasmodium falciparum [11]): 9.22
- pIC50 (Plasmodium falciparum [1]): 8.95

SMILES: c1cc([C@H]2CC[C@]3(CC2)OOC2(O3)C3CC4CC(C3)CC2C4)ccc1OCCN1CCOCC1 (some centres not stated)
- Activity (Plasmodium falciparum [9]): <0.01%

SMILES: C[C@@H]1CC[C@H]2[C@@H](C)C(=O)N(CC(=O)c3ccccc3)[C@@H]3O[C@]4(C)CC[C@@H]1[C@@]23OO4
- Ratio IC50 (Plasmodium falciparum [12]): 1.8
- Ratio IC50 (Plasmodium falciparum [13]): 1.8

SMILES: C[C@H]1[C@@H](OCc2ccc(C(=O)N(CCNc3ccnc4cc(Cl)ccc34)CC(=O)NC3CCCCC3)cc2)O[C@@H]2O[C@]3(C)CC[C@H]4[C@H](C)CC[C@@H]1[C@@]24OO3
- pIC50 (Plasmodium falciparum [14]): 7.59
- pIC50 (Plasmodium falciparum [1]): 7.64

SMILES: C[C@@H]1CC[C@H]2[C@@H](C)C(=O)N(/C=C\C#N)[C@@H]3O[C@H]4CC[C@@H]1[C@@]23OO4
- Ratio IC50 (Plasmodium falciparum [12]): 1.7
- Ratio IC50 (Plasmodium falciparum [13]): 2.7

SMILES: CCCCCC[C@H]1C(=O)O[C@@H]2O[C@]3(C)CC[C@H]4[C@H](C)CC[C@@H]1[C@@]24OO3
- IC100 (Plasmodium berghei [2]): 8 mg/kg/day

SMILES: C[C@@H]1CC[C@H]2[C@@H](C)C(Nc3cccc(Cl)c3)O[C@@H]3O[C@]4(C)CC[C@@H]1[C@]32OO4 (some centres not stated)
- SD50 (Plasmodium berghei [15]): 1.62 mg/kg/day

SMILES: FC1(F)C2CC3CC1CC(C2)C31OO[C@]2(CC[C@@H](c3ccc(OCCN4CCOCC4)cc3)CC2)O1 (some centres not stated)
- Activity (Plasmodium falciparum [9]): <0.01%

SMILES: C[C@H]1[C@H](CC(C[C@H]2O[C@@H]3O[C@]4(C)CC[C@H]5[C@H](C)CC[C@@H]([C@H]2C)[C@@]35OO4)C(=O)O)O[C@@H]2O[C@]3(C)CC[C@H]4[C@H](C)CC[C@@H]1[C@@]24OO3 (some centres not stated)
- pEC50 (Plasmodium falciparum [4]): 8.62
- ED50 (Plasmodium falciparum [16]): 0.8 mg/kg
- ED50 (Plasmodium falciparum [17]): 2 mg/kg

SMILES: C[C@@H]1CC[C@H]2[C@@H](C)C(Nc3ccc(Cl)cc3)O[C@@H]3O[C@]4(C)CC[C@@H]1[C@]32OO4 (some centres not stated)
- SD50 (Plasmodium berghei [15]): 1.77 mg/kg/day

SMILES: C[C@H]1[C@@H](CCOCc2cccc(F)c2)O[C@@H]2O[C@]3(C)CC[C@H]4[C@H](C)CC[C@@H]1[C@@]24OO3
- pIC50 (Plasmodium falciparum [5]): 8.42
- ED50 (Plasmodium berghei [18]): 5.08 mg/kg
- pIC50 (Plasmodium falciparum [8]): 9.46

SMILES: C[C@H]1[C@H](NS(=O)(=O)N2CCN(c3ccccn3)CC2)O[C@@H]2O[C@]3(C)CC[C@H]4[C@H](C)CC[C@@H]1[C@@]24OO3
- pIC50 (Plasmodium falciparum [11]): 10.40

SMILES: C[C@H]1[C@H](N2CCN(C(=O)Nc3ccc(F)cc3)CC2)O[C@@H]2O[C@]3(C)CC[C@H]4[C@H](C)CC[C@@H]1[C@@]24OO3
- pIC50 (Plasmodium falciparum [6]): 8.04
- pIC50 (Plasmodium falciparum [7]): 8.92
- pIC50 (Plasmodium falciparum [1]): 9.07

SMILES: C[C@H]1[C@@H](OCc2ccc(C(=O)N(CCCNc3ccnc4cc(Cl)ccc34)CC(=O)NC3CCCCC3)cc2)O[C@@H]2O[C@]3(C)CC[C@H]4[C@H](C)CC[C@@H]1[C@@]24OO3
- pIC50 (Plasmodium falciparum [14]): 7.46
- pIC50 (Plasmodium falciparum [1]): 7.68

SMILES: C[C@H]1[C@@H](CCOCc2ccccc2F)O[C@@H]2O[C@]3(C)CC[C@H]4[C@H](C)CC[C@@H]1[C@@]24OO3
- ED50 (Plasmodium berghei [18]): 5.08 mg/kg

— ChEMBL document CHEMBL5244272 (Eur J Med Chem, 2021)
